Test results as given in patent US7977477B2, “Benzimidazole derivatives and their use as protein kinase inhibitors” (Astex Therapeutics, Limited, priority 2003, dated 2011).
pIC50: −log10 of the molar value.

Columns and labels:
[1] = tested on: HCT-116 cell line; assay: Anti-proliferative activity, inhibition of cell growth (Alamar Blue assay); format: cell-based; settings: Homo sapiens, 72 hours with compound
Protocol: The anti-proliferative activity of the compounds of the invention has been determined by measuring inhibition of cell growth in the HCT-116 cell line.
The anti-proliferative activities of compounds of the invention were determined by measuring the ability of the compounds to inhibition of cell growth in a number of cell lines. Inhibition of cell growth was measured using the Alamar Blue assay (Nociari, M. M, Shalev, A., Benias, P., Russo, C. Journal of Immunological Methods 1998, 213, 157-167). The method is based on the ability of viable cells to reduce resazurin to its fluorescent product resorufin. For each proliferation assay cells were plated onto 96 well plates and allowed to recover for 16 hours prior to the addition of inhibitor compounds for a further 72 hours. At the end of the incubation period 10% (v/v) Alamar Blue was added and incubated for a further 6 hours prior to determination of fluorescent product at […]. In the case of the non-proliferating cell assay cells were maintained at confluence for 96 hour prior to the addition of inhibitor compounds for a further 72 hours. The number of viable cells was determined by Alamar Blue assay as before. All cell lines were obtained from ECACC (European Collection of cell Cultures).

[2] = target: T1, CDK2/CyclinA (Homo sapiens, UniProt P24941); assay: CDK2 kinase inhibitory activity (Example 306, Protocol A or B); format: biochemical; settings: for pIC50: protocol of Example 306, read-out: IC50 (CDK inhibitory activity); for inhibition at 0.003 µM: read-out: % inhibition (CDK inhibitory activity)
T1 construct: purchased Upstate Biotechnology
Protocol: Compounds of the invention were tested for kinase inhibitory activity using either Protocol A or Protocol B.
1.7 μl of active CDK2/CyclinA (Upstate Biotechnology, 10 U/μl) is diluted in assay buffer (250 μl of 10× strength assay buffer (200 mM MOPS pH 7.2, 250 mM β-glycerophosphate, 50 mM EDTA, 150 mM MgCl2), 11.27 μl 10 mM ATP, 2.5 μl 1M DTT, 25 μl 100 mM sodium orthovanadate, 708.53 μl H2O), and 10 μl mixed with 10 μl of histone substrate mix (60 μl bovine histone H1 (Upstate Biotechnology, 5 mg/ml), 940 μl H2O, 35 μCi γ^33P-ATP) and added to 96 well plates along with 5 μl of various dilutions of the test compound in DMSO (up to 2.5%). The reaction is allowed to proceed for 5 hours before being stopped with an excess of ortho-phosphoric acid (30 μl at 2%).
(§1) γ^33P-ATP which remains unincorporated into the histone H1 is separated from phosphorylated histone H1 on a Millipore MAPH filter plate. The wells of the MAPH plate are wetted with 0.5% orthophosphoric acid, and then the results of the reaction are filtered with a Millipore vacuum filtration unit through the wells. Following filtration, the residue is washed twice with 200 μl of 0.5% orthophosphoric acid. Once the filters have dried, 25 μl of Microscint 20 scintillant is added, and then counted on a Packard Topcount for 30 seconds.
The % inhibition of the CDK2 activity is calculated and plotted in order to determine the concentration of test compound required to inhibit 50% of the CDK2 activity (IC50).
Activated CDK2/CyclinA (Brown et al, Nat. Cell Biol., 1, pp 438-443, 1999; Lowe, E. D., et al Biochemistry, 41, pp 15625-15634, 2002) is diluted to 125 pM in 2.5× strength assay buffer (50 mM MOPS pH 7.2, 62.5 mM O-glycerophosphate, 12.5 mM EDTA, 37.5 mM MgCl2, […], 2.5 mM DTT, 2.5 mM sodium orthovanadate, 0.25 mg/ml bovine serum albumin), and 10 fi mixed with 10 A1 of histone substrate mix (60 μl bovine histone H1 (Upstate Biotechnology, 5 mg/ml), 940 μl H2O, 35 μCi γ^33P-ATP) and added to 96 well plates along with 5 μl of various dilutions of the test compound in DMSO (up to 2.5%). The reaction is allowed to proceed for 2 to 4 hours before being stopped with an excess of ortho-phosphoric acid (5 μl at 2%).
as §1, with “20” for “25”

[3] = target: CDK1/cyclinB (Homo sapiens, UniProt P06493); assay: CDK selectivity assay, CDK1; format: biochemical; settings: read-out: IC50 against CDK 1
Protocol: (§2) Compounds of the invention were tested for kinase inhibitory activity against a number of different kinases using the general protocol described in Example 129, but modified as set out below.
(§3) Kinases are diluted to a 10× working stock in 20 mM MOPS pH 7.0, 1 mM EDTA, 0.1% γ-mercaptoethanol, 0.01% Brij-35, 5% glycerol, 1 mg/ml BSA. One unit equals the incorporation of 1 nmol of phosphate per minute into 0.1 mg/ml histone H1, or CDK7 substrate peptide at […] with a final ATP concentration of 100 uM.
(§4) The substrate for all the CDK assays (except CDK7) is histone H1, diluted to 10× working stock in 20 mM MOPS pH 7.4 prior to use. The substrate for CDK7 is a specific peptide diluted to 10× working stock in deionised water.
(§5) Assay Procedure for CDK1/cyclinB, CDK2/cyclinA. CDK2/cyclinE, CDK3/cyclinE, CDK5/p35. CDK6/cyclinD3:
(§6) In a final reaction volume of 25 μl, the enzyme (5-10 mU) is incubated with 8 mM MOPS pH 7.0, 0.2 mM EDTA, 0.1 mg/ml histone H1, 10 mM MgAcetate and [γ-^33P-ATP] (specific activity approx 500 cpm/pmol, concentration as required). The reaction is initiated by the addition of Mg^2+ [γ-^33P-ATP]. After incubation for 40 minutes at room temperature the reaction is stopped by the addition of 5 μl of a 3% phosphoric acid solution. 10 ml of the reaction is spotted onto a P30 filter mat and washed 3 times for 5 minutes in 75 mM phosphoric acid and once in methanol prior to drying and counting.

[4] = target: CDK5/p35 (Homo sapiens, UniProt Q00535); assay: CDK selectivity assay, CDK5; format: biochemical; settings: read-out: IC50 against CDK 5
Protocol: as §2, §3, §4, §5, §6

[5] = target: CDK3/cyclinE (Homo sapiens, UniProt Q00526); assay: CDK selectivity assay, CDK3; format: biochemical; settings: read-out: IC50 against CDK 3
Protocol: as §2, §3, §4, §5, §6

[6] = target: GSK3β (human) (Homo sapiens, UniProt P49841); assay: Inhibitory activity against glycogen synthase kinase-3 (GSK-3); format: biochemical; settings: read-out: IC50 against GSK30
Protocol: GSK3β (human) is diluted to a 10× working stock in 50 mM Tris pH 7.5, 0.1 mM EGTA, 0.1 mM sodium vanadate, 0.1% β-mercaptoethanol, 1 mg/ml BSA. One unit equals the incorporation of 1 nmol of phosphate per minute phospho-glycogen synthase peptide 2 per minute.
as §6, with “GSK3β” for “the enzyme”, “MOPS” for “MOPS pH”, “20 μM […](p)EDEEE (phospho GS2 peptide),” for “0.1 mg/ml histone H1,”, “Mg^2+[γ-^33P-ATP].” for “Mg^2+ [γ-^33P-ATP].”, “μl” for “ml”, “50” for “75”

Chain of CDK5/p35 (Q00535 whole entry): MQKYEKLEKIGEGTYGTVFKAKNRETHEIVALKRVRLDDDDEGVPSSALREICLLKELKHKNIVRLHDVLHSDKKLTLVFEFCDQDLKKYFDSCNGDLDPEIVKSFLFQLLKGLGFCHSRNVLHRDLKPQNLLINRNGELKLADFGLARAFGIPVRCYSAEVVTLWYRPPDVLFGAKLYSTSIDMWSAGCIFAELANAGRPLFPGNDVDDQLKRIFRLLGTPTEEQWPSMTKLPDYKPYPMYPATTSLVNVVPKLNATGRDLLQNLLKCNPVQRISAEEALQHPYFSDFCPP
Chain of CDK5/p35 (Q15078 whole entry partner): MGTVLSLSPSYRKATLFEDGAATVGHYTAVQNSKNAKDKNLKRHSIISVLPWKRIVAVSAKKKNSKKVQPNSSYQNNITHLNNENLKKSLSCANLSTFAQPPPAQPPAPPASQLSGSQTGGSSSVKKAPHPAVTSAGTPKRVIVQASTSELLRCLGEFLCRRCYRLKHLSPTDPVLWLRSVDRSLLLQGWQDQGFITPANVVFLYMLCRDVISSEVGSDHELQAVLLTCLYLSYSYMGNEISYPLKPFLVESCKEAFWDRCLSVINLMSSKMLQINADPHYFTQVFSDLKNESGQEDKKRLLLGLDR
Chain of CDK1/cyclinB (P06493 whole entry): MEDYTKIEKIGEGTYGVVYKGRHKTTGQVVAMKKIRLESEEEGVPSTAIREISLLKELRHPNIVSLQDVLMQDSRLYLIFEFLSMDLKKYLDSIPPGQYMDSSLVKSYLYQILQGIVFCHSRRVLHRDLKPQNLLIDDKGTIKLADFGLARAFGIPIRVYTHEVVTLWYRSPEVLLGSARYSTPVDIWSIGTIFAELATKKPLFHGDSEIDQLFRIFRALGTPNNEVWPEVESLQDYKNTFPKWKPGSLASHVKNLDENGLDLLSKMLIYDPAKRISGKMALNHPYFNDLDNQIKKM
Chain of CDK1/cyclinB (P14635 whole entry partner): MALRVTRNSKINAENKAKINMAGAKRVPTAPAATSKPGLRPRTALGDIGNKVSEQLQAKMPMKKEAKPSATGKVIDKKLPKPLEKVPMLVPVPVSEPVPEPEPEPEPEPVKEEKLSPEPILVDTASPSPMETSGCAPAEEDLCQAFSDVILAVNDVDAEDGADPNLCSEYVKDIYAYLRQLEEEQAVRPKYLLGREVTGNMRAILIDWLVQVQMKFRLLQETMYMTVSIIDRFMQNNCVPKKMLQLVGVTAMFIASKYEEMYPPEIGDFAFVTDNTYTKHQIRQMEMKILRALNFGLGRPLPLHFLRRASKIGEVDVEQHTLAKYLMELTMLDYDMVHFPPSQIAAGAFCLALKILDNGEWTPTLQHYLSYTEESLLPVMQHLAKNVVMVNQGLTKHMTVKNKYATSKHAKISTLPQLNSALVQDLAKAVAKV
Chain of CDK3/cyclinE (Q00526 whole entry): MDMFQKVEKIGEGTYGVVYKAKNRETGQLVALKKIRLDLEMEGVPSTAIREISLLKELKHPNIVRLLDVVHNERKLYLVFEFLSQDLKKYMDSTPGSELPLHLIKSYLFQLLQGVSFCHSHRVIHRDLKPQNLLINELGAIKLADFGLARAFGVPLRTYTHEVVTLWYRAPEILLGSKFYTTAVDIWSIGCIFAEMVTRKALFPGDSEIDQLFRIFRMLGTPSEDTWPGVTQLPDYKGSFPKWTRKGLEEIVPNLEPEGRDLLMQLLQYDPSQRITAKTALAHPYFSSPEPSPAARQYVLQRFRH
Chain of CDK3/cyclinE (P24864 whole entry partner): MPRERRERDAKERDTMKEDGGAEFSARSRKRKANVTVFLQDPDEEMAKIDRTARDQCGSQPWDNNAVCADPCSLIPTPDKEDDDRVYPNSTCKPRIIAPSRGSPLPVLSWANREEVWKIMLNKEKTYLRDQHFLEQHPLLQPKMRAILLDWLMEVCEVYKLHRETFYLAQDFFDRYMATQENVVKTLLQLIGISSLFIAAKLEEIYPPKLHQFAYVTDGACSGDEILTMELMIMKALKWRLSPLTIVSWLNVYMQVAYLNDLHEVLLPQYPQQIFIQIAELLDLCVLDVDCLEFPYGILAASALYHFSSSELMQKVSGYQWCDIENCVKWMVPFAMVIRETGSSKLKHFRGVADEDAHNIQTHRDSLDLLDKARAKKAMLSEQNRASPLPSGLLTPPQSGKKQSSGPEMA
Chain of GSK3β (human) (P49841 whole entry): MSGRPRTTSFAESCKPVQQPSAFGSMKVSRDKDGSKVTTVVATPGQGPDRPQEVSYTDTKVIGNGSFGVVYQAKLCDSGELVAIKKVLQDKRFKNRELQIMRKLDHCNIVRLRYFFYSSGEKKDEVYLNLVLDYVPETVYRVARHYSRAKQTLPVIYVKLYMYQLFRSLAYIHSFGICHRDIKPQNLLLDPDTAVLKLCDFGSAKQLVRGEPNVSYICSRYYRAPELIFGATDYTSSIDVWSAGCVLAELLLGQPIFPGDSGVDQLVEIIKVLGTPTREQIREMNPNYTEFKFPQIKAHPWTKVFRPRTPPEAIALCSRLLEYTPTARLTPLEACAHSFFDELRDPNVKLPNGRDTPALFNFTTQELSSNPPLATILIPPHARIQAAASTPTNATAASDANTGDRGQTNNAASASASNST

Compound	pIC50 [3]	pIC50 [4]	pIC50 [5]	inhibition at 0.003 µM [2] [%]	further results
Cc1cc2nc(-c3n[nH]cc3NC(=O)c3c(F)cccc3F)[nH]c2cc1C [Example 73]					pIC50 [1]: 6.31; pIC50 [2]: 8.34
Cc1ccc(C(=O)Nc2c[nH]nc2-c2nc3cc(C)c(C)cc3[nH]2)cc1 [Compound B, reference compound]					pIC50 [1]: 5.24; pIC50 [2]: 5.52
Cc1cccc(Cl)c1C(=O)Nc1c[nH]nc1-c1nc2ccccc2[nH]1 [Example 57]				41	
COc1cccc(F)c1C(=O)Nc1c[nH]nc1-c1nc2ccccc2[nH]1 [Example 44]				57	
O=C(Nc1c[nH]nc1-c1nc2ccccc2[nH]1)c1c(F)cccc1Cl [Example 43]				52	
O=C(Nc1c[nH]nc1-c1nc2ccccc2[nH]1)c1c(F)cc(F)cc1F [Example 56]				58	
COc1cc(F)c(C(=O)Nc2c[nH]nc2-c2nc3ccccc3[nH]2)c(F)c1 [Example 41]	> 6.00	> 6.00	> 6.00		
O=C(Nc1c[nH]nc1-c1nc2ccccc2[nH]1)c1ccccc1 [Compound A, reference compound]					pIC50 [2]: 7.01
O=C(Nc1c[nH]nc1-c1nc2ccccc2[nH]1)c1c(Cl)cccc1Cl [Example 59]				67	

Continued, in another order:

pIC50 [3]	pIC50 [4]	pIC50 [5]	Compound	inhibition at 0.003 µM [2] [%]	further results
> 6.00	> 6.00	> 6.00	CN1CCN(Cc2cccc3[nH]c(-c4n[nH]cc4NC(=O)c4c(F)cccc4F)nc23)CC1 [Example 13, 2,6-Difluoro-N-[3-(N-methyl-piperazinyl-4-ylmethyl-1H-benzimidazol-2-yl)-1H-pyrazol-4-yl]-benzamide]		
> 6.00	> 6.00	> 6.00	CC(C)(C)NCc1cccc2[nH]c(-c3n[nH]cc3NC(=O)c3c(F)cccc3F)nc12 [Example 14, N-{3-[4-(tert-Butylamino-methyl)-1H-benzimidazol-2-yl]-1H-pyrazol-4-yl}-2,6-difluoro-benzamide]		
> 6.00	> 6.00	> 6.00	CN1CCN(C(=O)c2ccc3[nH]c(-c4n[nH]cc4NC(=O)c4c(F)cccc4F)nc3c2)CC1 [Example 21, 2,6-Difluoro-N-{3-[5-(4-methyl-piperazine-1-carbonyl)-1H-benzimidazol-2-yl]-1H-pyrazol-4-yl}-benzamide]		
> 6.00	> 6.00	> 6.00	O=C(Nc1c[nH]nc1-c1nc2c(CN3CCOCC3)cccc2[nH]1)c1c(F)cccc1F [Example 12, 2,6-Difluoro-N-[3-(4-morpholin-4-yl-methyl-1H-benzimidazol-2-yl)-1H-pyrazol-4-yl]-benzamide]		pIC50 [6]: > 6.00
> 6.00	> 6.00	> 6.00	O=C(Nc1c[nH]nc1-c1nc2ccccc2[nH]1)c1c(F)cccc1F [Example 6, N-[3-(1H-Benzimidazol-2-yl)-1H-pyrazol-4-yl]-2,6-difluoro-benzamide]		pIC50 [6]: > 6.00; pIC50 [2]: 8.32
